Residue numbers refer to the chain shown, from its start.
Legend:
Long Evans Hooded rats = experiment: In vivo measurement of salivation; set-up: species or system rat; conditions: anesthetized normal rats, dose-dependent between about 0.1 mg/kg and 1 mg/kg
Description: Suitable doses of test compounds or drug substances were administered using standard techniques to Long Evans Hooded rats weighing 225 to 350 grams, or CD-1 mice weighing 30 to 50 grams, which had been anesthetized using 2-3.5%% of isoflurane in oxygen. The animals were placed slightly head-down on an inclined, heated ramp. Rectal temperature was monitored using a thermocouple and the temperature of the heating pad was adjusted manually to maintain normal body temperature. Saliva was collected from the mouth by absorption onto pre-weighed slips of filter paper. The filter paper was changed periodically and the amount of saliva was measured by weighing the filter paper slips.

[1] = target: T1, human muscarinic M1 receptors (Homo sapiens, UniProt P11229); experiment: Stimulation of inositol phosphate production in A9L cells, human M1 (IPOne TR-FRET); type: cell-based
T1 construct: host or cells: A9L cells
T1 sequence (P11229 1-460): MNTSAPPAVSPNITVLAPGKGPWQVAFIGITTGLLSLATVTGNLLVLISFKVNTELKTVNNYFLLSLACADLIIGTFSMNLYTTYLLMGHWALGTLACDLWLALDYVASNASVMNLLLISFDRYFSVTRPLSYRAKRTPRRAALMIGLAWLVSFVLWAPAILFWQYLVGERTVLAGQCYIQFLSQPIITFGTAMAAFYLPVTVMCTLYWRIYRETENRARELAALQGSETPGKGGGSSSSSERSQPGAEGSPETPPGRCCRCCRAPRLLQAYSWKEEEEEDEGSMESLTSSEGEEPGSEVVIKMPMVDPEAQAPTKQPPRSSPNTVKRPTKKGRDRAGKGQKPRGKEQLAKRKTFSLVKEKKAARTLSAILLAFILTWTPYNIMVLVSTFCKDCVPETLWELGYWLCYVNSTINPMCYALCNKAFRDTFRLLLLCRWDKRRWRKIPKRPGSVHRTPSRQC
Description: (§1) Muscarinic M1 and M3 agonist activity was evaluated by measuring the stimulation of inositol phosphate (IP) production in the presence of lithium chloride from A9L cells transfected with expression plasmids containing human muscarinic M1 and M3 receptors, respectively. The cell lines were a gift from Professor W Messer, and the methods were as described in Tejada F R et al. J. Med. Chem. 2006; 49: 7518-31 except that the assay was scaled down to run in 384 well plates, and IP was measured in the cell lysates using the non-isotopic IPOne TR-FRET assay (CIS-BIO, Inc).
(§2) Cells were grown to 90% confluence in 384 well hi-base plates (Greiner Bio-One), compounds were added at suitable concentrations in growth medium containing 10 mM LiCL, buffered with an extra 10 mM HEPES (pH7.4), and incubated for 60 minutes at 37° C. Cells were lysed and assayed for IP following the manufacturer's instructions.
(§3) The value for a full agonist is 100%, while partial agonists give values below 100%.

[2] = target: T2, human muscarinic M3 receptors (Homo sapiens, UniProt P20309); experiment: Stimulation of inositol phosphate production in A9L cells, human M3 (IPOne TR-FRET); type: cell-based
T2 construct: host or cells: A9L cells
T2 sequence (P20309 whole entry): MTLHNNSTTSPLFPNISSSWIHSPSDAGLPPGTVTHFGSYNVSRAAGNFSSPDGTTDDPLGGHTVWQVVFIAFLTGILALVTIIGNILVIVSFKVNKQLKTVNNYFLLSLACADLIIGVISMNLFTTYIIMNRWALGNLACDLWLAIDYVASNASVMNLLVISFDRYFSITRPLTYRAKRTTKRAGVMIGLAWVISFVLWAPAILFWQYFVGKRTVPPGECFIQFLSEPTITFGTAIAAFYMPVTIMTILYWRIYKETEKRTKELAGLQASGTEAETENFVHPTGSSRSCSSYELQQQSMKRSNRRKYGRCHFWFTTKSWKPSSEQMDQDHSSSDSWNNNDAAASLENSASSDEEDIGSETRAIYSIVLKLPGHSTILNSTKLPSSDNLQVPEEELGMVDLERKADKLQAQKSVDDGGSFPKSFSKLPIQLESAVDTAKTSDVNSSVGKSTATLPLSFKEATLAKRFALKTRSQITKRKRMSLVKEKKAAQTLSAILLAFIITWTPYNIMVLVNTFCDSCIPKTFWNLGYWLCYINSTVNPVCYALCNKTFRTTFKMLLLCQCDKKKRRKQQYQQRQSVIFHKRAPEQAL
Description: as §1, §2, §3

CD-I mice = experiment: Apomorphine induced climbing model of psychosis; type: in vivo, mouse
Description: As described in Costall et. al. European Journal of Pharmacology 1978, 50, 39. individual CD-I mice, 1-2 months old, were placed in a cylindrical wire mesh cage (13.2 cm high×13.2 cm diameter) constructed of steel wire 1 mm thick spaced at 1.2 cm^2. Cylinders were placed in a standard OptiMICE mouse cage (29×32×9×29 cm wide and 14 cm high) with adequate wood chip bedding provided. Observations of climbing (defined as 3 or more paws off the ground) were carried out every 5 minutes at a duration of 1 minute for 30 minutes. Animals were injected subcutaneously under isoflurane anesthesia with test compounds, reference compounds, which included clozapine, haloperidol, olanzapine and xanomeline, or PBS as a control. This was followed 5 minutes later by 2 mg/kg apomorphine hydrochloride. All drugs were dissolved in PBS or a mixture of (by volume) 96% PBS and 4% hydroxypropyl-beta-cyclodextrin, and dosed at a rate of 5 ml per kilogram of body weight. Following injections, animals were replaced in the mesh cages and observed for climbing (defined as 3 or more paws off the ground) every 5 minutes for a duration of 1 minute for 60 minutes after dosing.

A-beta = A-beta in hippocampal microdialysate of Tg-2576 transgenic mice; type: in vivo, mouse; conditions: single dose
From the text: These mice have high concentrations of A-beta in their brain tissue, thought to be the cause of neuron death in Alzheimer's disease, and accumulate amyloid plaques, recapitulating one of the hallmark pathological features of Alzheimer's disease.

[3] = test system: pooled male human liver microsomes; experiment: Metabolism by human liver microsomes; type: in vitro ADME; conditions: 6 hours incubation
Description: Compounds were incubated with pooled male human liver microsomes (BD Biosciences, #452172) and an NADP-regenerating system in a phosphate buffer (pH 7.4) for a total of 6 hours. Aliquots were removed every 2 hours, and 1% formic acid was added to halt the reaction. Samples were centrifuged, filtered through 0.2 micron spinfilter and the amount of each compound in the supernatants was quantitated using LC/MS/MS.

rat M1 receptors = target: T3, rat M1 receptors (Rattus norvegicus, UniProt P08482); experiment: PI turnover (inositol phosphate production) in M1-CHO cells; type: cell-based; conditions: for Muscarinic agonist activity by PI turnover: cell lines expressing M1 and M3 subtypes
T3 construct: host or cells: Chinese Hamster Ovary cells (M1-CHO)
T3 sequence (P08482 1-460): T1 sequence (P11229 1-460) with A5V, T254S, P309S, R320K, A337G, I413V
Description: (§4) The medium was changed to 70 μL/well of inositol-free DMEM containing 2 mM glutamine, 10% FBS and 10 μCi/ml of [3H]-inositol (PE:cat #NET114A250UC), incubated overnight as above, then 100 μL of a solution of the test compound in HBSS containing 10 mM LiCl and 20 mM HEPES, pH 7.4 was added, incubation was continued for 60 min under the above conditions, and the test was stopped by removing the test compound and replacing with 100 μL of 50 mM formic acid in water at 4° C.

rat M3 receptors = target: T4, rat M3 receptors (Rattus norvegicus, UniProt P08483); experiment: PI turnover (inositol phosphate production) in M3-CHO cells; type: cell-based; conditions: mean Smax relative to mean Smax for carbachol (100)
T4 construct: host or cells: Chinese Hamster Ovary cells (M3-CHO)
T4 sequence (P08483 whole entry): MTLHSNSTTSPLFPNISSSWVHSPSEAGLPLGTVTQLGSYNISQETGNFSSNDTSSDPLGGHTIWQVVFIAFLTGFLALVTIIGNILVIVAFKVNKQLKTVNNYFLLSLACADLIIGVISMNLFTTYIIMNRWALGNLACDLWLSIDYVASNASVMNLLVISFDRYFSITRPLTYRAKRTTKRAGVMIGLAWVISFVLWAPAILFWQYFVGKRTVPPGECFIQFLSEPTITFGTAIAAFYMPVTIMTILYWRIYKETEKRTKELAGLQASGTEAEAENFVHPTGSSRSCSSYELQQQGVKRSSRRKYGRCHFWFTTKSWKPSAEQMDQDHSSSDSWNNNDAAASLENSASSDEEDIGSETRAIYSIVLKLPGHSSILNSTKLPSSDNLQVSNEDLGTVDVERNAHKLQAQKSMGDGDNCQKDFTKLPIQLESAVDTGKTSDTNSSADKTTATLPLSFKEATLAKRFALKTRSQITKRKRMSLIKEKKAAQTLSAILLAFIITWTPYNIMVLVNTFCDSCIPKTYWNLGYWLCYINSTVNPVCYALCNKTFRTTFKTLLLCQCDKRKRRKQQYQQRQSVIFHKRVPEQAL
Description: as §4

rats = experiment: Muscarinic effects in vivo (salivary flow) in rats dosed orally; set-up: species or system rat
[4] = Blood and brain concentrations (rats) after oral gavage; type: in vivo, rat
Description: Long-Evans Hooded rats (Charles River: male, 250-350 g) were dosed with solutions of test compounds in PBS by oral gavage. At the desired time after dosing, the animals were anesthetized with isoflurane, and then euthanized by cervical dislocation. Blood was obtained by cardiac puncture, transferred to a 1.5 mL microcentrifuge tube containing 15U Heparin, and the plasma recovered after centrifugation. Brains were dissected, weighed, immediately chilled to 4° C., and homogenized using a PowerGen 125 homogenizer in five volumes of ice-cold 2% formic acid. Proteins were precipitated from plasma and brain homogenate with two and five volumes respectively of ice-cold 2% formic acid and clarified by centrifugation. The supernatant was ultra-filtered by centrifugation through a 3K MWCO spin column (Pall Life Sciences), following the manufacturer's instructions. The concentration of compound in the ultra-filtrate was subjected to reverse-phase liquid chromatography using a 150×2.1 mm Agilent C8 reverse-phase column on a Shimadzu Prominence LC, eluting the compounds with a gradient of 2% to 50% of acetonitrile+0.1% formic acid for compound MI-50,382, or an isocratic flow of 2% acetonitrile+0.1% formic acid for the rest of the compounds listed. The concentration of the compound in the column effluent was measured using an Applied Biosystems API-3200 triple quadrupole mass spectrometer equipped with an electrospray sample injection system. The counts of the characteristic parent and product ions of each test compound were converted to concentration units by comparison with a standard calibration curve.

[5] = Metabolites in serum and urine of dosed rats; type: in vivo; conditions: rat serum/plasma or urine
Description: Oxadiazoles disclosed herein as well as other oxadiazoles were investigated to determine the formation of metabolites. Animals were dosed, blood taken, serum prepared, serum proteins precipitated and ultrafiltrates prepared as described in Example 6. In separate experiments, urine was collected from rats for 16-24 hours after dosing, using standard metabolic cages. The urine container and collected urine were maintained at 4° C. Urine was lyophilized, taken back into water. The ultrafiltrate was prepared by adding formic acid to a final concentration of 1% to the urine samples, then filtered through a 0.2 um nylon membrane. The ultrafiltrate was subjected to LC-MS analysis. Instead of measuring the product ions in Q3, manual Q1 scans of the liquid chromatograph were undertaken, seeking parent ions of potential metabolites of the compounds. The criteria for identifying metabolites were as follows: (1) the ion should be present in the sera or urines of dosed rats, but not in sera or urines from non-dosed rats (2) the ion should be identifiable as a metabolic derivative of the dosed compound (e.g. loss of a functional chemical moiety, addition of a hydroxyl group or a glucuronic acid moiety, etc). Metabolites were determined not to be present if no compound meeting the above criteria could be detected in serum or urine.

| Functional selectivity for M1 subtype by PI turnover (rat M1 receptors; M1 versus M3 cell lines) | SMILES | Salivation (Long Evans Hooded rats) | huM1/A9L ED50 relative to CCh [1] | huM3/A9L ED50 relative to CCh [2] | Climbing Mean (secs) (CD-I mice; Cmpd 3 + APO + N-Methyl Scopolamine 0.3 mg/kg) | Climbing Mean (secs) (CD-I mice; Cmpd 3 + APO + scopolamine 0.3 mg/kg) | Potency in inhibiting climbing relative to reference antipsychotic (CD-I mice; sc) | Reduction of concentration of A-beta 1-40 in hippocampal microdialysate (A-beta) | Reduction of concentration of A-beta 1-42 in hippocampal microdialysate (A-beta) | Metabolism in human liver microsomes [3] | PAMPA units | Muscarinic agonist activity by PI turnover (rat M1 receptors) | M3/CHO PI turnover Relative Mean Smax (rat M3 receptors) | Salivary flow (rats; rats, dosed orally) | M1/CHO PI turnover Relative Mean Smax (rat M1 receptors; mean Smax relative to mean Smax for carbachol (100)) | Plasma concentration relative to compound 1 ([4]; after oral dosing to rats) | Brain Cmax (10 mg/kg po) 1 hr MCD-386 = 1.00 ([4]; rat brain, 10 mg/kg po, 1 hr, relative to MCD-386) | Penetration into the brain ([4]; rats after oral dosing) | Presence of metabolites (10 mg/kg po) [5] | Muscarinic agonist activity in vivo (rats; in vivo) |
| --- | --- | --- | --- | --- | --- | --- | --- | --- | --- | --- | --- | --- | --- | --- | --- | --- | --- | --- | --- | --- |
|  | Cc1noc(C2CCCNC2)n1 (racemic) [compound 3, 3-Methyl-5-(piperidin-3-yl)-1,2,4-oxadiazole] | causes salivation | + (key: ++: potency > 10x CCh; +: potency 2-10x CCh; +/−: potency 0.5-2x CCh; −: potency < 0.5-0.1x CCh; −−: potency < 0.1x CCh; inactive: potency too low to determine) | +/− (key: ++: potency > 10x CCh; +: potency 2-10x CCh; +/−: potency 0.5-2x CCh; −: potency < 0.5-0.1x CCh; −−: potency < 0.1x CCh; inactive: potency too low to determine) | unaffected by N-methylscopolamine | inhibited by scopolamine | equipotent to haloperidol | approximately 40% | approximately 40% | metabolized significantly less in human liver microsomes than in rat liver microsomes | 2.56 |  |  |  |  |  |  |  |  |  |
| not selective for the M1 subtype | Cl.[2H]C([2H])([2H])c1noc(C2CN=CNC2)n1 (centres unmarked) [compound 4, 3-(d3-methyl)-5-(1,4,5,6-tetrahydropyrimidin-5-yl)-1,2,4-oxadiazole hydrochloride] |  |  |  |  |  |  |  |  |  |  | near full-agonist | 92.6 | copious salivary flow, which was relatively short-lived |  |  |  |  |  |  |
|  | [2H]C([2H])([2H])c1noc(C2CCCNC2)n1 (centres unmarked) [compound 7, 3-D3-Methyl-5-(piperidin-3-yl)-1,2,4-oxadiazole] |  |  |  |  |  |  |  |  | metabolized significantly less in human liver microsomes than in rat liver microsomes |  | relatively low | 0 |  | 2.7 | approximately 2.4 times | 2.16 | penetrated into the brain | No metabolites were identified and No | demonstrated muscarinic agonist activity in vivo |
